This note sets out measurements from article PMC9078399, “Discovery of N-cyclobutylaminoethoxyisoxazole derivatives as novel sigma-1 receptor ligands with neurite outgrowth efficacy in cells” (RSC Advances, 2018).

“Also recorded” adds a separate entry of the source.

The target of assay [1] is T1, σ1 receptor (Cavia porcellus, UniProt Q60492).
T1 construct: σ1 receptor, [^3H]-(+)-pentazocine, Guinea pig brain homogenate; from tissue; host or cells: Guinea pig brain homogenate
Briefly: Radioligand binding at σ1 receptor ([3H]-(+)-pentazocine, NIMH PDSP). Set-up: species or system Guinea pig. The note with it: for Ki: [3H]-(+)-pentazocine, Guinea pig brain homogenate, mean ± SEM, three independent experiments; for Selectivity (Ki σ2/Ki σ1): ratio of Ki σ2 to Ki σ1. An excerpt:
(§1) In this study, [^3H] pentazocine and [^3H]DTG (6) were used as the radioligands at σ1 and σ2 receptors. Firstly, we examined the effects of changing the substituents on the benzene ring. […] Mono-halogen substitution on the benzene ring exemplified by compounds 17–20 generally retained affinity for σ1 receptor compared with compound 7. […] The derivatives 21–25 also maintained similar high affinities for the σ1 receptor upon incorporation of two halogen atoms on the benzene ring. However, this is also accompanied with higher binding affinity to the σ2 receptor. […]. Next, we examined the effects of removing the methyl group on the basic nitrogen atom. […] […]. […] The results for the secondary amines 28 and 29 indicate that the hydrogen bond donor on basic nitrogen atom was beneficial for increased binding affinity to the σ1 receptor.
(§2) Radioligand competition studies were carried out by the National Institute of Mental Health's Psychoactive Drug Screening Program, Contract #HHSN-271-2008-00025-C (NIMH PDSP). The general procedures are listed as follows:
(§3) All the test compounds solution (1 mg mL^−1) were prepared by dissolving in DMSO or buffer solvent (50 mM Tris–HCl, pH = 8.0). The filter-mats were presoaked in 0.5% aqueous polyethyleneimine solution for 2 h at rt before use. All binding experiments were carried out in poly-L-lysine-coated 96-well plate and the final test concentration (50 μM, 5 μM, 1.5 μM, 500 nM, 150 nM, 50 nM, 15 nM, 5 nM, 1.5 nM, 0.5 nM, 0.05 nM) were prepared by addition of Tris–HCl solution (50 mM, pH = 8.0). The following specific radioligands and tissue source were used: (a) σ1 receptor, [^3H]-(+)-pentazocine, Guinea pig brain homogenate; (b) σ2 receptor, [^3H]-DTG, PC-12 cells. 100 μL of corresponding radioligand solution, 100 μL test compound solution and 50 μL of the respective receptor preparation into each well of the plate (total volume 250 μL). During the incubation, the plates were shaken at a speed of 500–600 rpm at the specified temperature (σ1 receptor, 37 °C, 150 min; σ2 receptor, rt, 120 min). The incubation was followed by a rapid vacuum filtration through Whatman GF/B glass filters, and the filtrates were washed twice with 10 mL of cold buffer and transferred to the 6 mL scintillation vials. EcoScint scintillation fluid (4.0 mL) was added, and the radioactivity bound was measured using a Beckman LS 6500 liquid scintillation counter. All experiments were performed at least three times.
(§4) For experimental details please refer to the PDSP website http://pdsp.med.unc.edu/.[28]

Assay [2] addresses T2, σ2 receptor (Rattus norvegicus, UniProt Q5U3Y7).
T2 construct: (b) σ2 receptor, [^3H]-DTG, PC-12 cells; endogenous in cells; host or cells: PC-12 cells
T2 sequence (Q5U3Y7 1-176): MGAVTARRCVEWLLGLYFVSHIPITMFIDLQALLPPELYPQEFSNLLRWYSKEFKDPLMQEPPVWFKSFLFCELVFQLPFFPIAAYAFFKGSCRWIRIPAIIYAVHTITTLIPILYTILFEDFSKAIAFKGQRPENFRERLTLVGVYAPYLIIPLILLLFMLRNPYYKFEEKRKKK
Briefly: Radioligand binding at σ2 receptor ([3H]-DTG, NIMH PDSP). The note with it: for Ki: [3H] DTG, PC12 cells, mean ± SEM, three independent experiments; for Increase of binding affinity for σ2 receptor relative to compound 7: compared with parent compound 7.
Source text: as §1, §2, §3, §4

Assay [3] concerns N1E-115 neuronal cells. Briefly: Neurite outgrowth in N1E-115 cells. It counts as cell-based, mouse. The following applies: 10 μM in DMSO, four days, vs. vehicle (DMSO). The procedure: Following the radioligand binding studies and CNS MPO calculations, all of the synthesized derivatives were further tested in cellular neuritogenesis studies. In this study, N1E-115 neuronal cells were used as a screening platform for assessing the neuritogenesis effects of candidate compounds.[31,32] All the derivatives and positive control (compound 7 and RC-33) were assessed at 10 μM concentration in DMSO, and vehicle group using DMSO alone.
N1E-115 cells, the mouse neuroblastoma cell lines, were obtained from the American Type Culture Collection (ATCC, Manassas, VA, USA). Undifferentiated N1E115 cells were cultured in DMEM complete medium with 10% fetal bovine serum, 100 U mL^−1 of penicillin, and 100 μg mL^−1 of streptomycin and maintained at 37 °C in a humidified incubator supplemented with 5% CO2. N1E-115 cells were seeded at a density of 1 × 10^4 cells per mL on poly-L-lysine-coated 96-well plates and grown with DMSO or different tested compounds (10 μM) in DMSO solution for four days. Four days after incubation, morphometric analysis was performed on digitized images of live cells taken under phase contrast illumination with an inverted microscope linked to a camera. Images of five fields per well were taken with an average of 100 cells per field. Cells that had at least one neurite with a length that was twice as long as the body diameter were expressed as a percentage of the total cells in the field. The counting was performed in a blinded manner. All experiments were performed at least five times.

For assay [4], the target named is DAT: dopamine transporter (Homo sapiens, UniProt Q01959). Briefly: Radioligand binding at DAT ([3H] WIN35428). As for the experimental part: (§5) In order to exclude the potential interference of other receptor pathways to the observed neuritogenesis efficacy, we assessed the binding affinities of compounds 7, 18, 22, 24, 25, 28 and 29 at the biogenic amine transporters (NET, DAT, and SERT).
Chain of DAT: dopamine transporter (Q01959 whole entry): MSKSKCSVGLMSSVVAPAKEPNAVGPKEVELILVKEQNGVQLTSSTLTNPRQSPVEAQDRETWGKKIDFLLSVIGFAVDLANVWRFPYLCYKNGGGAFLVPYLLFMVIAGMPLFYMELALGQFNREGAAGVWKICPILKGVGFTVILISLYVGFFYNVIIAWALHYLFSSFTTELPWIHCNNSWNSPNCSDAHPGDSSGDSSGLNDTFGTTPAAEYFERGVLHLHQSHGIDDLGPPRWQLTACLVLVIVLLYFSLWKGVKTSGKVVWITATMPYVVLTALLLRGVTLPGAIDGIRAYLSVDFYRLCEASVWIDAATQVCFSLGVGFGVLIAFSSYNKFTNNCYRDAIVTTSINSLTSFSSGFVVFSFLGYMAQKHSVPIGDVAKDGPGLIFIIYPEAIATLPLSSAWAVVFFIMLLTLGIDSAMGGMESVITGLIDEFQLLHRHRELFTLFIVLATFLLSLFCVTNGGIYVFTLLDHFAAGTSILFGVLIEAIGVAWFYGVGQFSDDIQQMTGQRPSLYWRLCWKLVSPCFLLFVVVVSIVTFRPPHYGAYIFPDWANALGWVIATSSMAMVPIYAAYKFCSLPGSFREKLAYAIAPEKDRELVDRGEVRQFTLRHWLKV
as §2, §4

Assay [5] deals with NET: norepinephrine transporter (Homo sapiens, UniProt P23975). Briefly: Radioligand binding at NET ([3H] nisoxetine). As for the experimental part: as §5, §2, §4
Chain of NET: norepinephrine transporter (P23975 whole entry): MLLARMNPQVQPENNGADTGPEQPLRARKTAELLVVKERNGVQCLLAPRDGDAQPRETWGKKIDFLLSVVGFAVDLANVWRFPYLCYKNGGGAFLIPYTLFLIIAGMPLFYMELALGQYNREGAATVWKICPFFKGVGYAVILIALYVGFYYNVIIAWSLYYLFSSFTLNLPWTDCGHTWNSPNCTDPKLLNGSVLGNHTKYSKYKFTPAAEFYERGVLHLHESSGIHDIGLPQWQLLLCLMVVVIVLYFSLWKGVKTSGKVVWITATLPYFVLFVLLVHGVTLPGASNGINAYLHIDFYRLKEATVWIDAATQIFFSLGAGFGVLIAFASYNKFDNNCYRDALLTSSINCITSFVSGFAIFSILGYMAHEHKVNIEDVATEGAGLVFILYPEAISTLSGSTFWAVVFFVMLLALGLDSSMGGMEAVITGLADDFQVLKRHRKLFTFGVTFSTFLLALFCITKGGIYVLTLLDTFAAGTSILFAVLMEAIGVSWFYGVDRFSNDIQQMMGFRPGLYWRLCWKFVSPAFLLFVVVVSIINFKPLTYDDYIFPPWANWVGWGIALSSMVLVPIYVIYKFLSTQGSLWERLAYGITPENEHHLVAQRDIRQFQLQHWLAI

T1 sequence (Q60492 whole entry): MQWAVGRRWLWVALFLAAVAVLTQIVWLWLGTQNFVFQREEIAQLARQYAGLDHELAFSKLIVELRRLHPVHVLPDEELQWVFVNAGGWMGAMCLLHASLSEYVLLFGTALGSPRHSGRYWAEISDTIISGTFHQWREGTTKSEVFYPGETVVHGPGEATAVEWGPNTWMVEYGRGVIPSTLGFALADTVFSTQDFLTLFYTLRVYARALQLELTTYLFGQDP

For `CN(CCOc1cc(COc2cccc(F)c2)on1)C1CCC1.Cl` [Compound 17, N-(2-((5-((3-Fluorophenoxy)methyl)isoxazol-3-yl)oxy)ethyl)-N-methylcyclobutanamine hydrochloride], the results for the Ki in assay [1] and in assay [2] were 1.9 nM and 91.5 ± 7.5 nM, respectively. In addition, the “Selectivity (Ki σ2/Ki σ1)” value in assay [1] worked out at 48.

For the molecule `CN(CCOc1cc(COc2ccc(F)cc2)on1)C1CCC1.Cl` [Compound 18, N-(2-((5-((4-Fluorophenoxy)methyl)isoxazol-3-yl)oxy)ethyl)-N-methylcyclobutanamine hydrochloride], the “Neurite outgrowth (neuritogenesis) effect” value (“Neurite outgrowth” for short) in assay [3] is “preferable neurite outgrowth effects compared to the parent compound 7 and positive control RC-33; also recorded: significant neuritogenesis effects”. Further, the figures for the Ki in assay [1], in assay [4] and in assay [2] were 0.9 ± 0.1 nM, 5.63 µM and 78.5 ± 19.5 nM, respectively. In addition, the “Selectivity (Ki σ2/Ki σ1)” value in assay [1] was found to be 87.

Take `CN(CCOc1cc(COc2cccc(Br)c2)on1)C1CCC1.Cl` [Compound 19, N-(2-((5-((3-Bromophenoxy)methyl)isoxazol-3-yl)oxy)ethyl)-N-methylcyclobutanamine hydrochloride]: in assay [1], the inhibitory constant (Ki) came to 0.8 ± 0.1 nM and the “Selectivity (Ki σ2/Ki σ1)” value was found to be 131. Also, in assay [2], the Ki is 105 ± 21 nM.

For the molecule `CN(CCOc1cc(COc2ccc(Br)cc2)on1)C1CCC1.Cl` [Compound 20, N-(2-((5-((4-Bromophenoxy)methyl)isoxazol-3-yl)oxy)ethyl)-N-methyl-cyclobutanamine hydrochloride], the inhibitory constant (Ki) is 5.5 ± 1.3 nM in assay [1] and 86.6 ± 16.8 nM in assay [2]. In addition, in assay [1], the “Selectivity (Ki σ2/Ki σ1)” value amounted to 16.

On to `CN(CCOc1cc(COc2ccc(F)c(F)c2)on1)C1CCC1.Cl` [Compound 21, N-(2-((5-((3,4-Difluorophenoxy)methyl)isoxazol-3-yl)oxy)ethyl)-N-methylcyclobutanamine hydrochloride], for which the Ki stood at 1.7 ± 0.3 nM in assay [1] and 153 ± 37 nM in assay [2]. Moreover, the “Selectivity (Ki σ2/Ki σ1)” value in assay [1] was 90.

As to `CN(CCOc1cc(COc2cc(F)cc(F)c2)on1)C1CCC1.Cl` [Compound 22, N-(2-((5-((3,5-Difluorophenoxy)methyl)isoxazol-3-yl)oxy)ethyl)-N-methylcyclobutanamine hydrochloride], the Ki in assay [5] is 2880 nM; in assay [1], 2.4 ± 1.2 nM; in assay [4], over 10 µM; in assay [2], 57 ± 20.1 nM. In addition, in assay [3], the “Neurite outgrowth” value was “preferable neurite outgrowth effects compared to the parent compound 7 and positive control RC-33; also recorded: significant neuritogenesis effects”. In addition, the “Selectivity (Ki σ2/Ki σ1)” value in assay [1] came out at 24.

`CN(CCOc1cc(COc2ccc(Cl)c(Cl)c2)on1)C1CCC1.Cl` [Compound 23, N-(2-((5-((3,4-Dichlorophenoxy)methyl)isoxazol-3-yl)oxy)ethyl)-N-methylcyclobutanamine hydrochloride]: the values for the Ki in assay [1] and in assay [2] were 3.2 ± 1.6 nM and 36 ± 9.7 nM, respectively. The “Selectivity (Ki σ2/Ki σ1)” value in assay [1] came out at 11.

For the molecule `CN(CCOc1cc(COc2cc(Cl)cc(Cl)c2)on1)C1CCC1.Cl` [Compound 24, N-(2-((5-((3,5-Dichlorophenoxy)methyl)isoxazol-3-yl)oxy)ethyl)-N-methylcyclobutanamine hydrochloride], the Ki in assay [5] turned out to be 1610 nM; in assay [1], 7.8 ± 3.2 nM; in assay [4] it was 1.81 µM; in assay [2], 22.8 ± 11.1 nM. The “Neurite outgrowth” value in assay [3] is “preferable neurite outgrowth effects compared to the parent compound 7 and positive control RC-33; also recorded: significant neuritogenesis effects”. For the same molecule, the “Decrease of affinity for σ1 receptor relative to compound 7” value in assay [1] (compared with parent compound 7) is on record as 4 fold. In addition, in assay [1], the “Selectivity (Ki σ2/Ki σ1)” value worked out at 3.0. The “Increase of binding affinity for σ2 receptor relative to compound 7” value in assay [2] is “more than 10 fold”.

On to `CN(CCOc1cc(COc2ccc(F)c(Cl)c2)on1)C1CCC1.Cl` [Compound 25, N-(2-((5-((3-Chloro-4-fluorophenoxy)methyl)isoxazol-3-yl)oxy)ethyl)-N-methylcyclobutanamine hydrochloride], for which the Ki in assay [5] is 1780 nM; in assay [1], 1.3 ± 0.4 nM; in assay [4], over 10 µM; in assay [2] it was 32 ± 6 nM. Moreover, the “Neurite outgrowth” value in assay [3] is “preferable neurite outgrowth effects compared to the parent compound 7 and positive control RC-33; also recorded: significant neuritogenesis effects”. The “Selectivity (Ki σ2/Ki σ1)” value in assay [1] is recorded as 25.

Regarding `CN(CCOc1cc(COc2cccc(C(F)(F)F)c2)on1)C1CCC1.Cl` [Compound 26, N-Methyl-N-(2-((5-((3-(trifluoromethyl)phenoxy)methyl)isoxazol-3-yl)oxy)ethyl)cyclobutanamine hydrochloride], in assay [3], the “Neurite outgrowth” value is “better efficacy than other mono-substituted compounds”. In addition, in assay [1], the inhibition constant (Ki) was 4 ± 1.2 nM and the “Selectivity (Ki σ2/Ki σ1)” value came out at 9.5. This molecule also showed a Ki in assay [2] of 38 ± 2 nM.

As for `Cc1cccc(OCc2cc(OCCN(C)C3CCC3)no2)c1.Cl` [Compound 27, N-Methyl-N-(2-((5-((m-tolyloxy)methyl)isoxazol-3-yl)oxy)ethyl)cyclobutanamine hydrochloride], in assay [1], the inhibition constant (Ki) was 4.2 ± 1.9 nM and the “Selectivity (Ki σ2/Ki σ1)” value is reported as 29.5. In assay [2], the Ki came to 124 ± 68 nM and the “Increase of binding affinity for σ2 receptor relative to compound 7” value stood at 3 fold.

Take `Cl.c1ccc(OCc2cc(OCCNC3CCC3)no2)cc1` [Compound 28, N-(2-((5-(Phenoxymethyl)isoxazol-3-yl)oxy)ethyl)cyclobutanamine hydrochloride]: the values for the inhibition constant Ki in assay [5], in assay [1] and in assay [2] were 7100 nM, 0.2 nM and 198 ± 64 nM, respectively. Further, the “Neurite outgrowth” value in assay [3] was “preferable neurite outgrowth effects compared to the parent compound 7 and positive control RC-33; also recorded: significant neuritogenesis effects”. Moreover, the “Selectivity (Ki σ2/Ki σ1)” value in assay [1] worked out at 990.

Take `Cl.c1ccc(OCc2cc(OCCN(C3CCC3)C3CCC3)no2)cc1` [Compound 30, N-Cyclobutyl-N-(2-((5-(phenoxymethyl)isoxazol-3-yl)oxy)ethyl)cyclobutanamine hydrochloride]: in assay [1], the Ki worked out at 16 ± 5 nM and the “Selectivity (Ki σ2/Ki σ1)” value is given as 3.3. The same molecule displayed an inhibition constant (Ki) in assay [2] of 53.5 ± 0.5 nM.
